Tests used:
[1] = target: T1, human glucagon receptor (Homo sapiens, UniProt P47871); test: Glucagon Binding Assay (II); details: membranes of BHK cells transfected with human glucagon receptor, 125I-glucagon, SPA; read-out: Glu Bd Assay (II) IC50
T1 construct: expressed in transfected cells; host or cells: BHK (baby hamster kidney) cells, membrane preparation
Description: Glucagon Binding Assay (II)
BHK (baby hamster kidney cell line) cells are transfected with the human glucagon receptor and a membrane preparation of the cells is prepared.
All steps in the membrane preparation are kept on ice or performed at 4° C. BHK cells are harvested and centrifuged. The pellet is resuspended in homogenisation buffer (25 mM HEPES, pH=7.4, 2.5 mM CaCl2, 1.0 mM MgCl2, 250 mg/L bacitracin, 0.1 mM Pefabloc), homogenised 2×10 sec using Polytron 10-35 homogenizer (Kinematica) and added the same amount of homogenisation buffer as used for resuspension. After centrifugation (15 min at 2000×g) the supernatant is transferred to cold centrifuge tubes and centrifuged for 45 min at 40.000×g. The pellet is resuspended in homogenisation buffer, homogenised 2×10 sec (Polytron) and additional homogenisation buffer is added. The suspension is centrifuged for 45 min at 40.000×g and the pellet is resuspended in resuspension buffer (25 mM HEPES, pH=7.4, 2.5 mM CaCl2, 1.0 mM MgCl2) and homogenised 2×10 sec. (Polytron). […] Stabilisation buffer (25 mM HEPES, pH=7.4, 2.5 mM CaCl2, 1.0 mM MgCl2, 1% bovine serum albumin, 500 mg/L bacitracin, 2.5 M sucrose) is added and the membrane preparation is stored at −80° C.
(§1) The glucagon binding assay is carried out in opti plates (Polystyrene Microplates, Packard). 50 μL assay buffer (25 mM HEPES, pH=7.5, 2.5 mM CaCl2, 1.0 mM MgCl2, 0.003% Tween-20, 0.005% bacitracin, 0.05% sodium azide) and 5 μL glucagon or test compound (in DMSO) are added to each well. […] Finally 50 μL WGA beads containing 1 mg beads are transferred to the well. The opti plates are incubated for 4 hours on a shaker and then settled for 8-48 hours. The opti plates are counted in a Topcounter. Non-specific binding is determined with 500 nM of glucagon.

[2] = target: T2, human GIP receptor (Homo sapiens, UniProt P48546); test: GIP Binding Assay; details: membranes of BHK cells transfected with human GIP receptor, 125I-GIP, SPA; read-out: GIP Bd Assay IC50
T2 construct: expressed in transfected cells; host or cells: BHK (baby hamster kidney) cells, membrane preparation
T2 sequence (P48546 22-466): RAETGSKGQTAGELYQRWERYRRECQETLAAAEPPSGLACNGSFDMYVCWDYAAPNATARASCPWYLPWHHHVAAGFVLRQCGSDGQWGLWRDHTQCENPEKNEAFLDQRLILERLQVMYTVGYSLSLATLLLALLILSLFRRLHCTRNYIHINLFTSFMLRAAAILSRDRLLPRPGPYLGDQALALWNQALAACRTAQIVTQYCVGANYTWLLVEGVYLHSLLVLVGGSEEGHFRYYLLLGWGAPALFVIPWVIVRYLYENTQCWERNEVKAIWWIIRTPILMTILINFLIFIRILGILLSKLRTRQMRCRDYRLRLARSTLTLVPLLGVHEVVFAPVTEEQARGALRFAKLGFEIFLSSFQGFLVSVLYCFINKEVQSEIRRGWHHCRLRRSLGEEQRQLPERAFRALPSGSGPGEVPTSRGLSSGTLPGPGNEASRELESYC
Description: BHK (baby hamster kidney cell line) cells are transfected with the human GIP receptor and a membrane preparation of the cells is prepared.
All steps in the membrane preparation are kept on ice or performed at 4° C. BHK cells are harvested and centrifuged. The pellet is resuspended in homogenisation buffer (25 mM) HEPES, pH=7.4, 2.5 mM CaCl2, 1.0 mM MgCl2, 250 mg/L bacitracin, 0.1 mM Pefabloc), homogenised 2×10 sec using Polytron 10-35 homogenizer (Kinematica) and added the same amount of homogenisation buffer as used for resuspension. After centrifugation (15 min at 2000×g) the supernatant is transferred to cold centrifuge tubes and centrifuged for 45 min at 40.000×g. The pellet is resuspended in homogenisation buffer, homogenised 2×10 sec (Polytron) and additional homogenisation buffer is added. The suspension is centrifuged for 45 min at 40.000×g and the pellet is resuspended in resuspension buffer (25 mM HEPES, pH=7.4, 2.5 mM CaCl2, 1.0 mM MgCl2) and homogenised 2×10 sec. (Polytron). […] Stabilisation buffer (25 mM HEPES, pH=7.4, 2.5 mM CaCl2, 1.0 mM MgCl2, 1% bovine serum albumin, 500 mg/L bacitracin, 2.5 M sucrose) is added and the membrane preparation is stored at −80° C.
as §1, with “The GIP” for “The glucagon”, “μL GIP” for “μL glucagon”, “for 3.5” for “for 4”, “a Top-counter.” for “a Topcounter.”, “of GIP.” for “of glucagon.”

T1 sequence (P47871 26-477): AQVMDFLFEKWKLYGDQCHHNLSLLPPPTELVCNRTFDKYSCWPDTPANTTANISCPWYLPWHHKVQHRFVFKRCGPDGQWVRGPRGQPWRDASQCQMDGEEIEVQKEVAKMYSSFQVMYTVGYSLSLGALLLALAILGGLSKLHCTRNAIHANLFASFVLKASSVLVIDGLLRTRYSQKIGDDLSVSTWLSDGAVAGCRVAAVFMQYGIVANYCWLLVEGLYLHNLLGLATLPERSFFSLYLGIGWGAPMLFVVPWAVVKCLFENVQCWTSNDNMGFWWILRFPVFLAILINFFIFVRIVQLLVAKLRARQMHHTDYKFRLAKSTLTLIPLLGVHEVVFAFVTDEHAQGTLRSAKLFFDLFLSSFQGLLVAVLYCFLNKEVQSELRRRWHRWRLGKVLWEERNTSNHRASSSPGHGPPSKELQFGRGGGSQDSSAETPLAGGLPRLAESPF

SMILES	IC50 [1] [nM]	IC50 [2] [nM]
C[C@H](NC(=O)N(Cc1ccc(C(=O)NC[C@@H](O)C(=O)O)cc1)c1ccc(C2CCCCC2)cc1)c1ccc(Cl)cc1 [Example 35, 3-{4-[3-[1(S)-(4-Chlorophenyl)ethyl]-1-(4-cyclohexylphenyl)ureidomethyl]benzoylamino}-2(R)-hydroxypropionic Acid]	40	432
O=C(NC[C@@H](O)C(=O)O)c1ccc(CN(C(=O)NCc2ccccc2-c2ccccc2)c2ccc(C3CCCCC3)cc2)cc1 [Example 36, 3-{4-[3-Biphenyl-2-ylmethyl-1-(4-cyclohexylphenyl)ureidomethyl]benzoylamino}-2(R)-hydroxypropionic acid]	14	284
N#Cc1ccc(NC(=O)N(Cc2ccc(C(=O)NC[C@@H](O)C(=O)O)cc2)c2ccc(C3CCCCC3)cc2)cc1C(F)(F)F [Example 37, (R)-3-{4-[3-(4-Cyano-3-trifluoromethylphenyl)-1-(4-cyclohexylphenyl)ureidomethyl]benzoyl-amino}-2-hydroxypropionic Acid]	19	520
CC(C)(C)c1cccc(NC(=O)N(Cc2ccc(C(=O)NC[C@@H](O)C(=O)O)cc2)c2ccc(C3CCCCC3)cc2)c1 [Example 38, (R)-3-{4-[3-(3-tert-Butylphenyl)-1-(4-cyclohexylphenyl)ureidomethyl]benzoylamino)-2-hydroxypropionic Acid]	33	221
O=C(NC[C@@H](O)C(=O)O)c1ccc(CN(C(=O)Nc2ccc(OC(F)(F)F)c(CO)c2)c2ccc(C3CCCCC3)cc2)cc1 [Example 39, (R)-3-{4-[1-(4-Cyclohexylphenyl)-3-(3-hydroxymethyl-4-trifluoromethoxyphenyl)ureidomethyl]-benzoylamino}-2-hydroxypropionic Acid]	18	357
CC(C)(C)c1ccc(N(Cc2ccc(C(=O)NC[C@@H](O)C(=O)O)cc2)C(=O)Nc2ccc(Cl)c(Cl)c2)cc1 [Example 40, (R)-3-{4-[1-(4-tert-butylphenyl)-3-(3,4-dichlorophenyl)ureidomethyl]benzoylamino}-2-hydroxypropionic acid]	107	800
CC(C)(C)C1CCC(N(Cc2ccc(C(=O)NC[C@@H](O)C(=O)O)cc2)C(=O)Nc2ccc(Cl)c(Cl)c2)CC1 (stereo partly drawn) [Example 41, (R)-3-{4-[1-(4-tert-Butylcyclohexyl)-3-(3,4-dichlorophenyl)ureidomethyl]benzoylamino}-2-hydroxypropionic acid]	133	1590
O=C(NC[C@@H](O)C(=O)O)c1ccc(CN(C(=O)Nc2ccc(Cl)c(Cl)c2)c2ccc(C3CCCCC3)cc2)cc1 [Example 42, (R)-3-{4-[1-(4-Cyclohexylphenyl)-3-(3,4-dichlorophenyl)ureidomethyl]benzoylamino}-2-hydroxypropionic acid]	41	340
O=C(NC[C@@H](O)C(=O)O)c1ccc(CN(C(=O)Nc2ccc3c(c2)C(F)(F)OC(F)(F)O3)c2ccc(C3CCCCC3)cc2)cc1 [Example 43, (R)-3-{4-[1-(4-Cyclohexylphenyl)-3-(2,2,4,4-tetrafluoro-4H-benzo[1,3]dioxin-6-yl)ureidomethyl]benzoylamino}-2-hydroxypropionic acid]	17	226
CC(C)(C)c1ccc(N(Cc2ccc(C(=O)NC[C@@H](O)C(=O)O)cc2)C(=O)Nc2ccc3c(c2)C(F)(F)OC(F)(F)O3)cc1 [Example 44, (R)-3-{4-[1-(4-tert-Butylphenyl)-3-(2,2,4,4-tetrafluoro-4H-benzo[1,3]dioxin-6-yl)ureidomethyl]benzoylamino}-2-hydroxypropionic acid]	39	291
CC(C)(C)C1CCC(N(Cc2ccc(C(=O)NC[C@@H](O)C(=O)O)cc2)C(=O)Nc2ccc3c(c2)C(F)(F)OC(F)(F)O3)CC1 (stereo partly drawn) [Example 45, (R)-3-{4-[1-(4-tert-Butylcyclohexyl)-3-(2,2,4,4-tetrafluoro-4H-benzo[1,3]dioxin-6-yl)ureidomethyl]benzoylamino}-2-hydroxypropionic acid]	61	373
CC(C)(C)c1ccc(N(Cc2ccc(C(=O)NC[C@@H](O)C(=O)O)cc2)C(=O)Nc2ccc(F)c(F)c2)cc1 [Example 46, (R)-3-{4-[1-(4-tert-Butylphenyl)-3-(3,4-difluorophenyl)ureidomethyl]benzoylamino}-2-hydroxypropionic acid]	507	1170
O=C(NC[C@@H](O)C(=O)O)c1ccc(CN(C(=O)Nc2ccc(F)c(F)c2)c2ccc(C3CCCCC3)cc2)cc1 [Example 47, (R)-3-{4-[1-(4-Cyclohexylphenyl)-3-(3,4-difluorophenyl)ureidomethyl]benzoylamino}-2-hydroxypropionic acid]	64	665
O=C(NC[C@@H](O)C(=O)O)c1ccc(CN(C(=O)Nc2ccc(F)c(F)c2)c2ccc(C3=CCCCC3)cc2)cc1 [Example 48, (R)-3-{4-[1-(4-Cyclohex-1-enylphenyl)-3-(3,4-difluorophenyl)ureidomethyl]benzoylamino}-2-hydroxypropionic acid]	182	> 3000
O=C(NC[C@@H](O)C(=O)O)c1ccc(CN(C(=O)Nc2ccc(Cl)c(C(F)(F)F)c2)c2ccc(C3CCCCC3)cc2)cc1 [Example 49, (R)-3-{4-[3-(4-Chloro-3-trifluoromethylphenyl)-1-(4-cyclohexylphenyl)ureidomethyl]benzoylamino}-2-hydroxypropionic acid]	25	160
O=C(NC[C@@H](O)C(=O)O)c1ccc(CN(C(=O)Nc2ccc(F)c([N+](=O)[O-])c2)c2ccc(C3CCCCC3)cc2)cc1 [Example 50, (R)-3-{4-[1-(4-Cyclohexylphenyl)-3-(4-fluoro-3-nitrophenyl)ureidomethyl]benzoylamino}-2-hydroxypropionic acid]	119	> 3000
CC(C)c1ccc(NC(=O)N(Cc2ccc(C(=O)NC[C@@H](O)C(=O)O)cc2)c2ccc(C3CCCCC3)cc2)cc1 [Example 51, (R)-3-{4-[1-(4-Cyclohexylphenyl)-3-(4-isopropylphenyl)ureidomethyl]benzoylamino}-2-hydroxypropionic acid]	88	831
O=C(NC[C@@H](O)C(=O)O)c1ccc(CN(C(=O)Nc2ccc(Cl)c(Cl)c2)c2ccc(C3=CCCCC3)cc2)cc1 [Example 52, (R)-3-{4-[1-(4-Cyclohex-1-enylphenyl)-3-(3,4-dichlorophenyl)ureidomethyl]benzoylamino}-2-hydroxypropionic acid]	47	341

— patent publication US6953812B2, “Glucagon antagonists/inverse agonists” (Novo Nordisk, Inc., priority 2000, dated 2005)
